The source of these data is publication PMC6505943, “Identification of a potential allosteric site of Golgi α-mannosidase II using computer-aided drug design” (PLoS ONE, 2019).

In assay [1] the test system is β-glucosidase of sweet almonds. Kind of assay: selectivity enzyme assay with β-glucosidase of sweet almonds (4-MU-Glc substrate). In kind it is biochemical. The procedure:
(§1) Inhibition assays with dGMII were performed at pH 5.75 in MES buffer (40 mM), supplemented with bovine serum albumin 1.1% (0.1% final concentration in MES buffer) and ZnSO4-solution 1.1% (0.1% final concentration in MES buffer). The recombinantly expressed and purified enzyme was added to a final concentration of 0.002 mg/mL per well. 4-Methylumbellifer-7-yl-α-D-mannopyranoside (4-MU-Man) was synthesized (S1 File and S2 Fig) and used as substrate with a final concentration of 1 mM per well. The total reaction volume was 50 μL and the mixture was incubated at 37°C for five minutes. […] The release of 4-methylumbelliferone was measured for 15 min by fluorescence spectroscopy using Greiner 96 Flat Bottom Black Polystyrol plates and a Tecan Reader Infinite F200 PRO equipped with a filter system (355 nm excitation and 485 nm emission). Assays in order to investigate the selectivity of compounds between different mannosidases were carried out on JBM. Assays concerning the selectivity between the desired mannosidase inhibition and a potential glucosidase inhibition were carried out on the β-glucosidase of sweet almonds using 4-methylumbelliferyl-β-D-glucopyranoside (4-MU-Glc) as substrate. The substrate 4-MU-Glc was synthesized as described in the supplementary information (S1 File and S3 Fig). JBM and β-glucosidase from sweet almonds were purchased from Sigma Aldrich. […]

In assay [2] the target is T1, JBM (Canavalia ensiformis, UniProt C0HJB3).
T1 construct: purchased Sigma Aldrich
T1 sequence (C0HJB3 1-562 limits assumed): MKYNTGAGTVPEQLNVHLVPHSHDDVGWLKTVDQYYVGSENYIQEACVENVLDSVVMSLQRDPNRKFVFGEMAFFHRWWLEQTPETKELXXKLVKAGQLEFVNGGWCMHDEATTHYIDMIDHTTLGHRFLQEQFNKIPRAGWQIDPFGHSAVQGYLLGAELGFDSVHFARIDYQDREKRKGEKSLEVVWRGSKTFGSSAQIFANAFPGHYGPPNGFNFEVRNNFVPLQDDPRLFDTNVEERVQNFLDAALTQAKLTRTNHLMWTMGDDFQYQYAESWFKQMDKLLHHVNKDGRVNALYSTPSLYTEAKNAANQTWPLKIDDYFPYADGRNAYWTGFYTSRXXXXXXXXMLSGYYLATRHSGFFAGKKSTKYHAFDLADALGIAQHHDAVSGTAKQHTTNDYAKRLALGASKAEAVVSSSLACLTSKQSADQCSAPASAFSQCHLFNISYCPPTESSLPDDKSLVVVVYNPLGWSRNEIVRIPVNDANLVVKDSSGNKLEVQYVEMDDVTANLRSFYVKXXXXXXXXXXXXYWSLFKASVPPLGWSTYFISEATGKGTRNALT
T1 sequence (C0HJB3 563-981 limits assumed): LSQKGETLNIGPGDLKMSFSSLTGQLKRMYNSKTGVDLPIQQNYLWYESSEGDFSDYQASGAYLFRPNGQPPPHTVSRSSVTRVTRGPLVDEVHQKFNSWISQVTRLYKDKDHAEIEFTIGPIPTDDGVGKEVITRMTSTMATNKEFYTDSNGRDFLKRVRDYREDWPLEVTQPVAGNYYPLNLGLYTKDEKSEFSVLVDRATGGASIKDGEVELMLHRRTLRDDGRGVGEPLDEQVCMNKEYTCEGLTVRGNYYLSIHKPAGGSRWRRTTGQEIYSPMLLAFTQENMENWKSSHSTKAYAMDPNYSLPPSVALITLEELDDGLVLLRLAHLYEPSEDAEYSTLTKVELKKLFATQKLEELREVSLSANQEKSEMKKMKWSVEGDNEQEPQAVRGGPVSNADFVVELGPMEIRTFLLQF
Kind of assay: selectivity enzyme assay with JBM (4-MU-Man substrate). In kind it is biochemical, Jack bean. Here is the method: as §1, with “Fig).” for “Fig). JBM and β-glucosidase from sweet almonds were purchased from Sigma Aldrich.”
KM values were calculated using the Michaelis-Menten kinetics Eq (3) v=vmax[S]/KM+[S] […]

Assay [3] addresses T2, Golgi α-mannosidase II from Drosophila melanogaster (dGMII) (Drosophila melanogaster, UniProt Q24451).
T2 construct: His tag; made in house; host or cells: Drosophila Schneider 2 (S2) cells, secreted into the medium
T2 sequence (Q24451 76-1108 limits assumed): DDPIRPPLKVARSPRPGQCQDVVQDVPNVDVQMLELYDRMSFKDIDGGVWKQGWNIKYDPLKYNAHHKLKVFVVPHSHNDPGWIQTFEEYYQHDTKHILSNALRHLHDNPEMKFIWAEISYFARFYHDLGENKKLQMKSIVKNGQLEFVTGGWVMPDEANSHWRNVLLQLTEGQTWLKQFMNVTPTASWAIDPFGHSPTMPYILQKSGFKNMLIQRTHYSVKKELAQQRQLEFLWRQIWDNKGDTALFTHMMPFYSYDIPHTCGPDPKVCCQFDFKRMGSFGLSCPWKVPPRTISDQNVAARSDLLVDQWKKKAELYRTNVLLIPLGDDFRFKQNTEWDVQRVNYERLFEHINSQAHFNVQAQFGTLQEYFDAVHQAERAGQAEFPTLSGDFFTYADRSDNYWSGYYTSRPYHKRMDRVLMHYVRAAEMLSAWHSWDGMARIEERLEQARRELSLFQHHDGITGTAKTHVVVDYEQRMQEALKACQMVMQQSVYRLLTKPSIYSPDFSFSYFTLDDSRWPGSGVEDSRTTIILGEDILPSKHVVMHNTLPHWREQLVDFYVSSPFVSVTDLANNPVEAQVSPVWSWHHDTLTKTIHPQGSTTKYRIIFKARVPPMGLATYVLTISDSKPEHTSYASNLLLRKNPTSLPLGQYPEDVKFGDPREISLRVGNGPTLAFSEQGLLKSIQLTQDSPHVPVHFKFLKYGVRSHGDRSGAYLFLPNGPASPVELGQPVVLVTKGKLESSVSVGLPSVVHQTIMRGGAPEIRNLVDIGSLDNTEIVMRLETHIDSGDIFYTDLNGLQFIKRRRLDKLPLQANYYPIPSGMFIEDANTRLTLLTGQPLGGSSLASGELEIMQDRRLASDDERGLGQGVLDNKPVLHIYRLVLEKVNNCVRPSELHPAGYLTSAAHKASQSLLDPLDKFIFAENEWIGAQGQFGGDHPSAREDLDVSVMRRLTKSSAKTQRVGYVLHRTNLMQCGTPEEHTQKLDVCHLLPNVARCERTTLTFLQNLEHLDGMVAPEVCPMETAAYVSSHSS
Nature of the assay: fluorometric enzyme inhibition assay with dGMII (4-MU-Man substrate). In kind it is biochemical. The following applies: for inhibition at 300 µM: at 300 μM compound, 1 mM 4-MU-Man, pH 5.75. Here is the method:
Inhibition assays with dGMII were performed at pH 5.75 in MES buffer (40 mM), supplemented with bovine serum albumin 1.1% (0.1% final concentration in MES buffer) and ZnSO4-solution 1.1% (0.1% final concentration in MES buffer). The recombinantly expressed and purified enzyme was added to a final concentration of 0.002 mg/mL per well. 4-Methylumbellifer-7-yl-α-D-mannopyranoside (4-MU-Man) was synthesized (S1 File and S2 Fig) and used as substrate with a final concentration of 1 mM per well. The total reaction volume was 50 μL and the mixture was incubated at 37°C for five minutes. […] The release of 4-methylumbelliferone was measured for 15 min by fluorescence spectroscopy using Greiner 96 Flat Bottom Black Polystyrol plates and a Tecan Reader Infinite F200 PRO equipped with a filter system (355 nm excitation and 485 nm emission). Assays in order to investigate the selectivity of compounds between different mannosidases were carried out on JBM. Assays concerning the selectivity between the desired mannosidase inhibition and a potential glucosidase inhibition were carried out on the β-glucosidase of sweet almonds using 4-methylumbelliferyl-β-D-glucopyranoside (4-MU-Glc) as substrate. The substrate 4-MU-Glc was synthesized as described in the supplementary information (S1 File and S3 Fig). JBM and β-glucosidase from sweet almonds were purchased from Sigma Aldrich. The enzyme β-glucosidase from sweet almonds was diluted in citrate buffer in order to obtain a concentration of 0.04 mg/mL. The inhibition assays were carried out at a pH of 5.0 in citrate buffer (20 mM). The substrate concentration was chosen to be 1 mM per well in accordance with the results of several KM value determinations since this concentration ensures good enzyme activity (KM = 1.9 ± 0.1 mM). Inhibition assays JBM were performed in the same buffer as for dGMII. The final concentration of the enzyme per well was 0.003 mg/ml. The substrate 4-MU-Man was used with a final concentration of 0.4 mM per well. The conducted assays with JBM and the β-glucosidase from sweet almonds were performed as described for dGMII.
The most promising compounds according to the molecular modeling studies were tested at 300 μM final concentration except for compound 24 which was tested at 100 μM per well due to the small amount available. […] The inhibition was calculated with the following Eq (2): Inhibition(%)=(1−activity(withinhibitor)/activity(withoutinhibitor))∙100 (2)
KM values were calculated using the Michaelis-Menten kinetics Eq (3) v=vmax[S]/KM+[S] (3) whereby vmax is the maximal velocity, [S] the substrate concentration and KM the substrate concentration yielding a velocity of vmax/2.
IC50 values were calculated using following Eq (4): y=ymax−ymin/1+([I]/IC50)^S+ymin (4) whereby ymax is defined as 100% enzyme activity, ymin as 0% enzyme activity, s is defined as the slope of the linear part of the curves (Hill coefficient), and [I] represents the inhibitor concentration. For the KM value determination, substrate concentrations ranging from 0.4 to 8.0 mM for dGMII and from 0.008 to 1.6 mM for JBM were used. For the IC50 determination of swainsonine, concentrations ranging from 6 to 120 nM were applied. […] The program GraFit (5.0.13, Erithacus Software, Horley, Surrey, UK (2006)) was used to calculate the IC50 values.

Each structure is given as a SMILES string. Entries after “also recorded” stand apart in the source; their conditions may differ. Like-named read-outs stand apart in the source and are kept apart here.

As for `Cc1cc(=O)oc2cc(O[C@@H]3O[C@H](CO)[C@@H](O)[C@H](O)[C@H]3O)ccc12` [4-MU-Glc, 4-methylumbelliferyl-β-D-glucopyranoside, reference compound], the Km (as a rule, the substrate concentration at which the rate is half of its maximum) in assay [1] (substrate of β-glucosidase from sweet almonds) stood at 1900 ± 100 µM.

`Cc1cc(=O)oc2cc(O[C@H]3O[C@H](CO)[C@@H](O)[C@H](O)[C@@H]3O)ccc12` [4-MU-Man, 4-Methylumbellifer-7-yl-α-D-mannopyranoside, reference compound]: the results for the Km in assay [2] (substrate of JBM) and in assay [3] (substrate of dGMII) were 600 ± 60 µM and 3600 ± 300 µM, respectively.

Regarding `O=C(Cc1ccn[nH]1)NC[C@@H](O)c1cc2ccccc2s1` [Compound 20], the inhibition (commonly the share of the control response that was lost under treatment) at 300 µM in assay [3] was around 41%.

Regarding `N#CC(C(=O)C1CCCCN1C(=O)c1cccnc1)c1ccccn1` (centres unmarked) [Compound 18], in assay [1] (at 300 μM, 1 mM 4-MU-Glc, pH 5.0), the “inhibition of the β-glucosidase of sweet almonds” value was “no significant inhibition; also recorded: did not exhibit significant inhibition”. Moreover, the inhibition at 300 µM was 70% in assay [2] (at 300 μM, 0.4 mM 4-MU-Man) and around 46% in assay [3]. The mode of inhibition entry in assay [3] (IC50 at varying substrate concentrations 0.1 to 3 mM) is on record as “non-competitive inhibition”. Also, in assay [3] (based on the inhibitory activity observed in the fluorometric assay), the ligand efficiency entry was “approximately 0.20 kcal/mol”. Also, in assay [3] (dGMII, 4-MU-Man substrate, read-out: IC50), the IC50 (commonly the midpoint of a concentration-inhibition curve) was found to be 217 ± 44.3 µM.

The molecule `O[C@H]1[C@H]2[C@H](O)CCCN2C[C@H]1O` [swainsonine, reference compound] registered an IC50 in assay [3] of 0.034 ± 0.0014 µM.
